Source: US9040714B2 (MannKind Corporation, priority 2010, dated 2015)
Like-named read-outs stand apart in the source and are kept apart here.

Key:
[1] = test system: IRE-1α-mediated XBP-1 splicing in human myeloma MM.1s cells; test: Cellular EC50: endogenous XBP-1 splicing in myeloma cells by RT-PCR (DTT stress); type: cell-based; conditions: MM1.S, read-out: EC50_av
Summary of the method: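 MM.1s myeloma cells were pretreated with compound 1.25 h, then stressed with 2 mM DTT for 45 min more (2 h total). XBP-1 was amplified by RT-PCR from total RNA with intron-flanking primers; ED50 taken at 50% spliced XBP-1s of total XBP-1.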

[2] = molecular target: human IRE-1α (GST-IRE-1α) (Homo sapiens (Human), UniProt O75460); test: IRE-1α assay in vitro: cleavage of Cy5/BHQ2-labelled mini-XBP-1 mRNA stem-loop substrate; type: biochemical; conditions: average IC50 for inhibition of IRE-1α
Description: In some embodiments IRE-la inhibitor compounds form a complex with IRE-1α. […] Other substrates also can be used to detect cleavage. See US 2007/0105123.
A fusion protein comprising glutathione S transferase (GST) and human IRE-1α (GST-IRE-1α) obtained from a 500 ml baculovirus-infected insect cell culture can be used to measure IRE-1α activity in vitro.
Five μl of a reaction mixture comprising IX reaction buffer (5× reaction buffer is 100 mM Hepes pH 7.5, 250 mM KOAc, 2.5 mM MgCl2), 3 mM DTT, and 0.4% polyethylene glycol water is added to each well of 384 well plates. Twenty-five nanoliters of a 1 mM test compound solution are added to test wells. Three μl of a […] IRE-1α preparation are added to each test well and to positive control wells (final concentration 5.82 ng/well). Negative control wells contain only reaction mixture and test compound.
After spinning the plates at 1200 rpm for 30 seconds, 3 μl of an IRE-1α human mini-XBP-1 mRNA stem-loop substrate 5′-[…]-3′ (SEQ ID NO:1), labeled with the fluorescent dye Cy5 at the 5′ end and Black Hole Quencher 2 (BH2) at the 3′ end, are added to each well of a control plate. The plates are again spun at 1200 rpm for 30 seconds. Final concentrations for the assay are: 63 nM IRE-1α substrate, 5.82 ng IRE-1α protein, and 2.5 μM test compound.
The plates are covered with lids and incubated for one hour at 30° C. The plates are then transferred to an ACQUEST™ microplate reader. Data is analyzed using data analysis software, and the percent activity of IRE-1α is calculated.
IC50 for inhibition of IRE-1α of compounds identified in Table 1 was measured as described in EXAMPLE 35.

[3] = test system: XBP-1 splicing in RPMI 8226 cells; test: Inhibition of thapsigargin-induced endogenous XBP-1 splicing in RPMI 8226 cells (RT-PCR); type: cell-based, human; conditions: 300 nM, 2 hours
Description: PCR amplification products were run on a 4% agarose gel and stained with ethidium bromide. The inverse image is shown.
Cell Culture. RPMI 8226 cells were grown in monolayer culture using Dulbecco's Modified Eagle Medium (DMEM) supplemented with 10% fetal calf serum (FCS) at 37° C. and 5% CO2. Compounds were kept as 10 mM stock in DMSO at −20° C. and diluted in medium to 10 μM, Thapsigargin (Tg) was resuspended in DMSO and diluted in medium,
RT-qPCR. Procedures for measuring XBP-1s and XBP-1u mRNAs have been described previously (Volkmann et al., J. Biol. Chem. 286, 12743-55, 2011). Briefly, total RNA was harvested from cells or tissue using TRIZOL® (Invitrogen) according to the manufacture's procedures. After ethanol, precipitation and resuspension of the RNA, RIBOGREEN® (Invitrogen) was used to quantify the yield—and normalize the RNA concentration in the source tube containing isolated RNA. RT-PCR was performed by oligo dT priming, […]® II (Invitrogen) and reverse transcription using the […] GOLD® Kit (Applied Biosystems) according to the manufacturer's protocols. Primers for human XBP-1 were
All DNA oligos were purchased from IDT DNA Technologies. PCR reactions were run on a Bio-Rad PTC-100® 96-well thermocycler; heating at 94° C. for 30 seconds, annealing at 58° C. for 30 seconds polymerizing at 72° C. for 30 seconds for 35 cycles. […]

[4] = test system: human myeloma RPMI8226 tumor xenografts; test: RPMI8226 xenograft efficacy model; type: in vivo, SCID mice; conditions: 0.75 mg/kg IV twice weekly
Description: SCID mice are evaluated for their ability to support implantation of desired tumor cells in support of model development and characterization. Mice are injected intravenously […] or implanted either subcutaneously (SC) or intraperitoneally (IP). To generate a relevant animal model mimicking human disease, it is desirable that all three approaches are evaluated for improved implantation rates and relevant disease progression, as is well known in the art. SC injections provide an easy way to measure tumor growth and efficacy, and IV and IP injections represent a more physiologically relevant model of human tumor spread. SC injections are given primarily in the flank, while IV injections are administered in the tail vein. Mice are manually restrained for SC and IP injections, and a Broome mouse restrainer is used for IV injections.
SCID mice are implanted with tumor cells (human RPMI8226 myeloma cells) via IP, IV or SC routes based on the results from the xenograft model development studies (above). Mice are treated with compound or mock treated (vehicle) for a period of up to 4-5 weeks. Compound administration can be via IV, IP, PO or SC routes. […]
Mice are monitored for tumor growth, regression and general health. […] Tumor growth is measured by calipers, ultrasound, or by abdominal lavage. Biomarkers in the blood or tumor can evaluated (primarily XBP-1 splicing). […]

[5] = average cellular EC50, XBP-1 splicing in myeloma cells

human IRE-1α (GST-IRE-1α), sequence (O75460 19-977): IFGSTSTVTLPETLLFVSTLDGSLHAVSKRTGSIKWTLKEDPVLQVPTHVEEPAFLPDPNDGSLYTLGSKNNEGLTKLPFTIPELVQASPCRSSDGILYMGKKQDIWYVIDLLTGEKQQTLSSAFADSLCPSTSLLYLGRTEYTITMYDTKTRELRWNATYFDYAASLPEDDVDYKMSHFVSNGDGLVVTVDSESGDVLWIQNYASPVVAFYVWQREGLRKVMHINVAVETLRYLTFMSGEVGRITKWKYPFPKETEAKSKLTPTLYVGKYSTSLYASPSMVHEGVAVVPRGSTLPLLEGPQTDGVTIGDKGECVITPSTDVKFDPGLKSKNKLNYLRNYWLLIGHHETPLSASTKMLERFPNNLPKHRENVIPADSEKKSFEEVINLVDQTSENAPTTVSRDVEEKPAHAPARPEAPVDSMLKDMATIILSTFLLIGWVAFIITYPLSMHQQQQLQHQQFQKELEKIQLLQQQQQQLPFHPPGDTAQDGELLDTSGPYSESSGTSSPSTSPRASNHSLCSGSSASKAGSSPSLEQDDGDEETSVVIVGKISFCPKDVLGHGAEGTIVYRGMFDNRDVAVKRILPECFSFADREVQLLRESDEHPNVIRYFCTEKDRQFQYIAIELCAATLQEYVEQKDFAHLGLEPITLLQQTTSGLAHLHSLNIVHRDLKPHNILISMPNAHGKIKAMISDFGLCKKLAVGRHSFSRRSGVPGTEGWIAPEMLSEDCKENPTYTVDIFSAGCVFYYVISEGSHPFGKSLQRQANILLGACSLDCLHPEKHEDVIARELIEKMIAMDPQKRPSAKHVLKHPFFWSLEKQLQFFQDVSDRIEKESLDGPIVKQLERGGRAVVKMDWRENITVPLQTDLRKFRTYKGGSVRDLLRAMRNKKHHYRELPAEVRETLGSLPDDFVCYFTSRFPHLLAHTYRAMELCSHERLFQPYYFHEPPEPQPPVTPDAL

Structure (SMILES)	EC50 [1, 5]	IC50 [2]	EC50 [1]	induction of XBP-1s [3]	tumor growth [4]
COc1cc2c(C)c(CC(=O)N3CCN(C)CC3)c(=O)oc2c(C=O)c1O [Example 168]	< 10 µM	< 0.1 µM			
COCCNC(=O)CCc1c(C)c2cc(OC)c(O)c(C=O)c2oc1=O [Example 171]		< 0.1 µM	< 10 µM		
COc1cc2c(C)c(CCC(=O)N3CCN(C)CC3)c(=O)oc2c(C=O)c1O [Example 173]		< 0.1 µM	< 10 µM		
COc1cc2c(C)c(CCC(=O)NCCN(C)C)c(=O)oc2c(C=O)c1O [Example 175]	> 10 µM	< 1 µM			
COCCNC(=O)CCc1c(C)c2cc(OCCOC)c(O)c(C=O)c2oc1=O [Example 184]	< 10 µM	< 0.1 µM			
COCCOc1cc2c(C)c(CCC(=O)NCCN(C)C)c(=O)oc2c(C=O)c1O [Example 185]		< 0.1 µM	> 10 µM		
COCCOc1cc2c(C)c(CCC(=O)NCCN3CCOCC3)c(=O)oc2c(C=O)c1O [Example 186]	> 10 µM	< 1 µM			
COc1cc(O)c(C=O)c2oc(=O)c(CCC(=O)N3CCOCC3)c(C)c12 [Example 192]	< 10 µM	< 1 µM			
COc1cc(O)c(C=O)c2oc(=O)c(CCC(=O)N3CCN(C)CC3)c(C)c12 [Example 193]	< 10 µM	< 0.1 µM			
COCCNC(=O)CCc1c(C)c2c(OC)cc(O)c(C=O)c2oc1=O [Example 194]	< 10 µM	< 0.1 µM			
COc1cc(O)c(C=O)c2oc(=O)c(CCC(=O)NCCN3CCOCC3)c(C)c12 [Example 196]	< 10 µM	< 0.1 µM			
COc1cc2c(C(F)(F)F)cc(=O)oc2c(C=O)c1O [Example 197]	< 10 µM	< 1 µM			
COc1cc2c3c(c(=O)oc2c(C=O)c1O)CCC3 [Example 198]		> 1 µM	< 10 µM		
COc1cc2c(C)c(C)c(=O)oc2c(C=O)c1O [Example 199]	> 10 µM	< 0.1 µM			
COc1cc2c(C)c(C(C)C)c(=O)oc2c(C=O)c1O [Example 200]		< 0.1 µM	> 10 µM		
Cc1c(CCC(=O)NCCN2CCOCC2)c(=O)oc2c(C=O)c(O)ccc12 [Example 201]	< 10 µM	< 0.1 µM			
C/C=C(/C)C(=O)O[C@H]1C(C)=C2[C@H]([C@@H]1OC(=O)CCCCCCC)[C@@](C)(OC(C)=O)C[C@H](OC(=O)CCC)[C@@]1(O)[C@H]2OC(=O)[C@@]1(C)O [Thapsigargin]				near complete conversion of XBP-1u to XBP-1s	
CC(C)C[C@H](NC(=O)[C@H](Cc1ccccc1)NC(=O)c1cnccn1)B(O)O [bortezomib, [(1R)-3-methyl-1-[[(2S)-1-oxo-3-phenyl-2-[(pyrazinylcarbonyl)amino]propyl]amino]butyl]boronic acid]					suppression of tumor growth

More lines, main results first:

EC50 [1, 5]	IC50 [2]	Structure (SMILES)	EC50 [1]	induction of XBP-1s [3]	tumor growth [4]
< 10 µM	< 0.1 µM	CCNC(=O)Cc1c(C)c2cc(OC)c(O)c(C=O)c2oc1=O [Example 169]			
< 10 µM	< 1 µM	COc1cc2c(C)c(CC(=O)NCCN(C)C)c(=O)oc2c(C=O)c1O [Example 170]			
< 10 µM	< 0.1 µM	COc1cc2c(C)c(CCC(=O)N3CCOCC3)c(=O)oc2c(C=O)c1O [Example 172]			
< 10 µM	< 0.1 µM	CCNC(=O)CCc1c(C)c2cc(OC)c(O)c(C=O)c2oc1=O [Example 174]			
< 10 µM	< 0.1 µM	COCCNC(=O)Cc1c(C)c2c(OC)cc(O)c(C=O)c2oc1=O [Example 176]			
< 10 µM	< 0.1 µM	COc1cc(O)c(C=O)c2oc(=O)c(CC(=O)N3CCOCC3)c(C)c12 [Example 177]			
< 10 µM	< 1 µM	COc1cc(O)c(C=O)c2oc(=O)c(CC(=O)NCCN3CCOCC3)c(C)c12 [Example 179]			
< 10 µM	< 0.1 µM	COc1cc(O)c(C=O)c2oc(=O)c(CC(=O)NCCN(C)C)c(C)c12 [Example 180]			
< 10 µM	< 0.1 µM	COCCOc1cc2c(C)c(CCC(=O)N3CCOCC3)c(=O)oc2c(C=O)c1O [Example 181]			
< 10 µM	< 0.1 µM	COCCOc1cc2c(C)c(CCC(=O)N3CCN(C)CC3)c(=O)oc2c(C=O)c1O [Example 182]			
